From US10160747B2, “Compounds and methods for kinase modulation, and indications therefor” (Plexxikon Inc., priority 2016, dated 2018)

How the values were obtained:
[1] = tested on: MOLM-14 D835Y (endogenous FLT3 ITD and transfected FLT3 D835Y); assay: MOLM-14 D835Y cell proliferation assay (CellTiter-Glo); format: cell-based; details: Homo sapiens, MOLM-14, 72 h; 3 d growth, GMean
Outline: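 MOLM-14 derivatives carrying D835Y or F691L, selected under escalating AC220, were seeded at 1×10^4 cells/well and exposed to an 8-point 1:3 compound series (1 to 0.00046 μM, 0.2% DMSO final) for three days at 37° C., 5% CO2. CellTiter-Glo luminescence (ATP content) versus concentration gave IC50.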

c-KIT = target: T1, c-KIT (Homo sapiens, UniProt P10721); assay: c-KIT recombinant enzyme kinase assay (AlphaScreen); format: biochemical; details: 100 ATP, 8 pt
T1 construct: purchased Millipore 14-559K
T1 sequence (P10721 26-976): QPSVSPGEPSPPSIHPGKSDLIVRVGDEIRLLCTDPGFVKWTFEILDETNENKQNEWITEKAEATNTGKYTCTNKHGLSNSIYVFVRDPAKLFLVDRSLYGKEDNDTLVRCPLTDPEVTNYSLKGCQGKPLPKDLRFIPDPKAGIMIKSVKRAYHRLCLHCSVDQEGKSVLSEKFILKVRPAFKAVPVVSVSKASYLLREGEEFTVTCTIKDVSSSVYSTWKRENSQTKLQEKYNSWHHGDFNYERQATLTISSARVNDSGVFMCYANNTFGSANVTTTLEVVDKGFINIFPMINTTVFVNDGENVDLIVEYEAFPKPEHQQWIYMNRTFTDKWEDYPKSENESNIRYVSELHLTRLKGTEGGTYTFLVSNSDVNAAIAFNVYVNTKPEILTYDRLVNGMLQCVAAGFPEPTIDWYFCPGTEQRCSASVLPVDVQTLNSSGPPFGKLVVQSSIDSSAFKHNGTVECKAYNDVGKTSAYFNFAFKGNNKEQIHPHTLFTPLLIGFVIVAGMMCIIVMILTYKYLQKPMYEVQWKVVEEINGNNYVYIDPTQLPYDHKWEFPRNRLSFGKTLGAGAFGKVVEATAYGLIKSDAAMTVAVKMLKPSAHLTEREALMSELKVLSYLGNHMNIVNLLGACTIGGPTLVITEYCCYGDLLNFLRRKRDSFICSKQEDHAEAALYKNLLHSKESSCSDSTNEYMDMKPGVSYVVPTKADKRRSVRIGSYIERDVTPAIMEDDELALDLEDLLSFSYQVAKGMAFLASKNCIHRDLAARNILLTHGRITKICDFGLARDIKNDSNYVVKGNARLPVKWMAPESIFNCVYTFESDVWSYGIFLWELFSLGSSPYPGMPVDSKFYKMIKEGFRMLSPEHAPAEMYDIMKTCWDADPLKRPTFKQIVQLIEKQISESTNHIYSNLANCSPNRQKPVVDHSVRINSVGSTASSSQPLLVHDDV
Outline: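 Recombinant kinase phosphorylates 30 nM biotinylated poly(Glu4-Tyr) peptide; ATP is 10 μM for FLT3-ITD and FLT3-D835Y, 100 μM for c-KIT. Phosphotyrosine detected by AlphaScreen (streptavidin donor, PY20 acceptor beads, 10 μg/mL), 580 nm signal after 680 nm excitation; IC50 from signal decrease.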

IC50 [1] [µM] | IC50 (c-KIT) [µM] | SMILES
0.0001 to 10 | 0.0001 to 10 | COc1ncc(NC(=O)Cc2ccc(-c3cnc(Nc4cn[nH]c4)nc3)cc2)cc1C(F)(F)F [Compound P-0025, N-[6-methoxy-5-(trifluoromethyl)-3-pyridyl]-2-[4-[2-(1H-pyrazol-4-ylamino)pyrimidin-5-yl]phenyl]acetamide]
0.0001 to 10 | 0.0001 to 10 | Cc1ncc(NC(=O)Cc2ccc(-c3cnc4[nH]c(Cl)cc4c3)cc2F)cc1C(F)(F)F [Compound P-0067, 2-[4-(2-chloro-1H-pyrrolo[2,3-b]pyridin-5-yl)-2-fluoro-phenyl]-N-[6-methyl-5-(trifluoromethyl)-3-pyridyl]acetamide]
 | 0.0001 to 10 | O=C(Cc1ccc(-c2cnc3[nH]c(Cl)cc3c2)cc1F)Nc1ccnc(C(F)(F)F)c1 [Compound P-0030, 2-[4-(2-chloro-1H-pyrrolo[2,3-b]pyridin-5-yl)-2-fluoro-phenyl]-N-[2-(trifluoromethyl)-4-pyridyl]acetamide]
0.0001 to 10 | 0.0001 to 10 | Cn1cc(Nc2ncc(-c3ccc(CC(=O)Nc4ccnc(C(F)(F)F)c4)c(F)c3)cn2)cn1 [Compound P-0083, 2-[2-fluoro-4-[2-[(1-methylpyrazol-4-yl)amino]pyrimidin-5-yl]phenyl]-N-[2-(trifluoromethyl)-4-pyridyl]acetamide]
0.0001 to 10 | 0.0001 to 10 | O=C(Cc1ccc(-c2cnc3[nH]cc(C(=O)C4CC4)c3c2)cc1F)Nc1ccnc(C(F)(F)F)c1 [Compound P-0032, 2-[4-[3-(cyclopropanecarbonyl)-1H-pyrrolo[2,3-b]pyridin-5-yl]-2-fluoro-phenyl]-N-[2-(trifluoromethyl)-4-pyridyl]acetamide]
0.0001 to 10 |  | COc1ncc(NC(=O)Cc2ccc(-c3cnc4[nH]c(Cl)cc4c3)cc2F)cc1C(F)(F)F [Compound P-0038, 2-[4-(2-chloro-1H-pyrrolo[2,3-b]pyridin-5-yl)-2-fluoro-phenyl]-N-[6-methoxy-5-(trifluoromethyl)-3-pyridyl]acetamide]
0.0001 to 10 | 0.0001 to 10 | O=C(Cc1ccc(-c2cnc(Nc3cnn4ccccc34)nc2)cc1F)Nc1cncc(C(F)(F)F)c1 [Compound P-0058, 2-[2-fluoro-4-[2-(pyrazolo[1,5-a]pyridin-3-ylamino)pyrimidin-5-yl]phenyl]-N-[5-(trifluoromethyl)-3-pyridyl]acetamide]
0.0001 to 10 | 0.0001 to 10 | O=C(Cc1ccc(-c2cnc3[nH]cc(Cl)c3n2)cc1F)Nc1cnc(Cl)c(C(F)(F)F)c1 [Compound P-0060, 2-[4-(7-chloro-5H-pyrrolo[2,3-b]pyrazin-2-yl)-2-fluoro-phenyl]-N-[6-chloro-5-(trifluoromethyl)-3-pyridyl]acetamide]
 | 0.0001 to 10 | O=C(Cc1ccc(-c2cnc3[nH]cc(F)c3c2)cc1F)Nc1ccnc(C(F)(F)F)c1 [Compound P-0029, 2-[2-fluoro-4-(3-fluoro-1H-pyrrolo[2,3-b]pyridin-5-yl)phenyl]-N-[2-(trifluoromethyl)-4-pyridyl]acetamide]
0.0001 to 10 | 0.0001 to 10 | COc1ncc(NC(=O)Cc2ccc(-c3cnc(Nc4cnn(C)c4)nc3)cc2F)cc1C(F)(F)F [Compound P-0089, 2-[2-fluoro-4-[2-[(1-methylpyrazol-4-yl)amino]pyrimidin-5-yl]phenyl]-N-[6-methoxy-5-(trifluoromethyl)-3-pyridyl]acetamide]
0.0001 to 10 | 0.0001 to 10 | CC(C)(C)c1ccc(NC(=O)Cc2ccc(-c3cnc4[nH]cc(F)c4c3)cc2F)cn1 [Compound P-0043, N-(6-tert-butyl-3-pyridyl)-2-[2-fluoro-4-(3-fluoro-1H-pyrrolo[2,3-b]pyridin-5-yl)phenyl]acetamide]
0.0001 to 10 | 0.0001 to 10 | Cc1ncc(NC(=O)Cc2ccc(-c3cnc(Nc4cnn(C)c4C)nc3)cc2F)cc1C(F)(F)F [Compound P-0076, 2-[4-[2-[(1,5-dimethylpyrazol-4-yl)amino]pyrimidin-5-yl]-2-fluoro-phenyl]-N-[6-methyl-5-(trifluoromethyl)-3-pyridyl]acetamide]
0.0001 to 10 | 0.0001 to 10 | CC(=O)c1c[nH]c2ncc(-c3ccc(CC(=O)Nc4ccnc(C(F)(F)F)c4)c(F)c3)cc12 [Compound P-0031, 2-(4-(3-acetyl-1H-pyrrolo[2,3-b]pyridin-5-yl)-2-fluorophenyl)-N-(2-(trifluoromethyl)pyridin-4-yl)acetamide]
0.0001 to 10 | 0.0001 to 10 | Cn1cc(Nc2ncc(-c3ccc(CC(=O)Nc4cncc(C5CC5)c4)c(F)c3)cn2)cn1 [Compound P-0081, N-(5-cyclopropyl-3-pyridyl)-2-[2-fluoro-4-[2-[(1-methylpyrazol-4-yl)amino]pyrimidin-5-yl]phenyl]acetamide]
0.0001 to 10 | 0.0001 to 10 | Cc1ncc(NC(=O)Cc2ccc(-c3cnc4c(c3)C3(CC3)C(=O)N4)cc2F)cc1C(F)(F)F [Compound P-0057, 2-[2-fluoro-4-(2-oxospiro[1H-pyrrolo[2,3-b]pyridine-3,1′-cyclopropane]-5-yl)phenyl]-N-[6-methyl-5-(trifluoromethyl)-3-pyridyl]acetamide]
0.0001 to 10 | 0.0001 to 10 | COc1ncc(NC(=O)Cc2ccc(-c3cnc(Nc4cn[nH]c4)nc3)cc2F)cc1C(F)(F)F [Compound P-0026, 2-[2-fluoro-4-[2-(1H-pyrazol-4-ylamino)pyrimidin-5-yl]phenyl]-N-[6-methoxy-5-(trifluoromethyl)-3-pyridyl]acetamide]
0.0001 to 10 | 0.0001 to 10 | Cn1cc(Nc2ncc(-c3ccc(CC(=O)NCc4ccccn4)c(F)c3)cn2)cn1 [Compound P-0088, 2-[2-fluoro-4-[2-[(1-methylpyrazol-4-yl)amino]pyrimidin-5-yl]phenyl]-N-(2-pyridylmethyl)acetamide]
0.0001 to 10 | 0.0001 to 10 | O=C(Cc1ccc(-c2cnc3[nH]cc(Cl)c3n2)cc1F)Nc1cncc(C(F)(F)F)c1 [Compound P-0061, 2-[4-(7-chloro-5H-pyrrolo[2,3-b]pyrazin-2-yl)-2-fluoro-phenyl]-N-[5-(trifluoromethyl)-3-pyridyl]acetamide]
0.0001 to 10 | 0.0001 to 10 | CC(=O)c1c[nH]c2ncc(-c3ccc(CC(=O)Nc4cncc(C(F)(F)F)c4)c(F)c3)cc12 [Compound P-0055, 2-[4-(3-acetyl-1H-pyrrolo[2,3-b]pyridin-5-yl)-2-fluoro-phenyl]-N-[5-(trifluoromethyl)-3-pyridyl]acetamide]
0.0001 to 10 | 0.0001 to 10 | Cc1ncc(NC(=O)Cc2ccc(-c3cnc(Nc4cnn5ccccc45)nc3)cc2F)cc1C(F)(F)F [Compound P-0065, 2-(2-fluoro-4-(2-(pyrazolo[1,5-a]pyridin-3-ylamino)pyrimidin-5-yl)phenyl)-N-(6-methyl-5-(trifluoromethyl)pyridin-3-yl)acetamide]
0.0001 to 10 | 0.0001 to 10 | CC(=O)c1c[nH]c2ncc(-c3ccc(CC(=O)Nc4cnc(C)c(C(F)(F)F)c4)c(F)c3)cc12 [Compound P-0063, 2-[4-(3-acetyl-1H-pyrrolo[2,3-b]pyridin-5-yl)-2-fluoro-phenyl]-N-[6-methyl-5-(trifluoromethyl)-3-pyridyl]acetamide]
0.0001 to 10 | 0.0001 to 10 | Cc1ncc(NC(=O)Cc2ccc(-c3cnc(Nc4cn[nH]c4)nc3)cc2F)cc1C(F)(F)F [Compound P-0027, 2-[2-fluoro-4-[2-(1H-pyrazol-4-ylamino)pyrimidin-5-yl]phenyl]-N-[6-methyl-5-(trifluoromethyl)-3-pyridyl]acetamide]
 | 0.0001 to 10 | Cn1cc(Nc2ncc(-c3ccc(CC(=O)NCc4ccc(C(F)(F)F)cn4)cc3)cn2)cn1 [Compound P-0162, 2-[4-[2-[(1-methylpyrazol-4-yl)amino]pyrimidin-5-yl]phenyl]-N-[[5-(trifluoromethyl)-2-pyridyl]methyl]acetamide]
0.0001 to 10 | 0.0001 to 10 | O=C(Cc1ccc(-c2cnc3c(c2)C2(CC2)C(=O)N3)cc1F)Nc1cncc(C(F)(F)F)c1 [Compound P-0064, 2-(2-fluoro-4-(2′-oxo-1′,2′-dihydrospiro[cyclopropane-1,3′-pyrrolo[2,3-b]pyridin]-5′-yl)phenyl)-N-(5-(trifluoromethyl)pyridin-3-yl)acetamide]
 | 0.0001 to 10 | Cn1cnc(Nc2ncc(-c3ccc(CC(=O)Nc4cc(C(C)(F)F)ccn4)cc3F)cn2)c1 [Compound P-0171, N-[4-(1,1-difluoroethyl)-2-pyridyl]-2-[3-fluoro-4-[2-[(1-methylimidazol-4-yl)amino]pyrimidin-5-yl]phenyl]acetamide]
 | 0.0001 to 10 | COc1ncc(NC(=O)Cc2ccc(-c3cnc4[nH]cc(F)c4c3)c(F)c2)cc1C(F)(F)F [Compound P-0048, 2-[3-fluoro-4-(3-fluoro-1H-pyrrolo[2,3-b]pyridin-5-yl)phenyl]-N-[6-methoxy-5-(trifluoromethyl)-3-pyridyl]acetamide]
0.0001 to 10 |  | O=C(Cc1ccc(-c2cnc(Nc3cnn4ccccc34)nc2)cc1)Nc1cncc(C(F)(F)F)c1 [Compound P-0074, 2-[4-[2-(pyrazolo[1,5-a]pyridin-3-ylamino)pyrimidin-5-yl]phenyl]-N-[5-(trifluoromethyl)-3-pyridyl]acetamide]
0.0001 to 10 |  | O=C(Cc1cc(F)c(-c2cnc(Nc3cnn4ccccc34)nc2)cc1F)Nc1cncc(C(F)(F)F)c1 [Compound P-0075, 2-[2,5-difluoro-4-[2-(pyrazolo[1,5-a]pyridin-3-ylamino)pyrimidin-5-yl]phenyl]-N-[5-(trifluoromethyl)-3-pyridyl]acetamide]
 | 0.0001 to 10 | COc1ncc(NC(=O)Cc2cc(F)c(-c3cnc4[nH]cc(F)c4c3)cc2F)cc1C(F)(F)F [Compound P-0051, 2-[2,5-difluoro-4-(3-fluoro-1H-pyrrolo[2,3-b]pyridin-5-yl)phenyl]-N-[6-methoxy-5-(trifluoromethyl)-3-pyridyl]acetamide]
